Here are results for 22 compounds from patent publication US10526320B2, “Pyrrolidine derivatives as PPAR agonists” (GUANGDONG RAYNOVENT BIOTECH CO., LTD., priority 2016, dated 2020).

What all share (assay type): cell-based
One experiment concerns the target T1, PPAR Alpha (Homo sapiens, UniProt Q07869).
T1 sequence (Q07869 1-468): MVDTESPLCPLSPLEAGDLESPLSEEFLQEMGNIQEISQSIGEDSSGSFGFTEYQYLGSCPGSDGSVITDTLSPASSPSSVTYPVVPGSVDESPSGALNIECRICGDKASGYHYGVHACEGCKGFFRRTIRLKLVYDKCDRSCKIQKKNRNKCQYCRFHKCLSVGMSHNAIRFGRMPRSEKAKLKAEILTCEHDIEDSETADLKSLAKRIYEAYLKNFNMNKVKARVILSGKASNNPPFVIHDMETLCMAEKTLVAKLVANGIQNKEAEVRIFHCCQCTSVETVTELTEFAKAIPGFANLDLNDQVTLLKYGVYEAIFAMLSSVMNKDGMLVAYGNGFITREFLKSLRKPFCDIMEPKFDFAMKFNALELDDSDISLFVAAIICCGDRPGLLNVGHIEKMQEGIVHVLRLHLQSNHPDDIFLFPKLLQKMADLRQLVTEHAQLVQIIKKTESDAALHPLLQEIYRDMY
Kind of experiment: PathHunter NHR protein interaction / nuclear translocation agonist test, PPAR Alpha. As to conditions: for Emax: read-out: PPAR Alpha Maximum Activation Response %.

Another experiment has as its target T2, PPAR Delta (Homo sapiens, UniProt Q03181).
T2 sequence (Q03181 1-441): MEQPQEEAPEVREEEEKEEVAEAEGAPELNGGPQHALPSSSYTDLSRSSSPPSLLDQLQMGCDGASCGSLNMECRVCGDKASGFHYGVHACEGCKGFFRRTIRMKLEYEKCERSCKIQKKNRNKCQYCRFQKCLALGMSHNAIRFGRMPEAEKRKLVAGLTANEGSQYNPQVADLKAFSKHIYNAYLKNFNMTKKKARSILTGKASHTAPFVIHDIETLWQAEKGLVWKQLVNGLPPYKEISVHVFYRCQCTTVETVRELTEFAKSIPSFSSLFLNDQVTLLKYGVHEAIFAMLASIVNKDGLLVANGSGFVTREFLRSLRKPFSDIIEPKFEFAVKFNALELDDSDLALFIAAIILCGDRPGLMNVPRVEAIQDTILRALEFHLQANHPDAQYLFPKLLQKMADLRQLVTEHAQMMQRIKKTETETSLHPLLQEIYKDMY
Kind of experiment: PathHunter NHR protein interaction / nuclear translocation agonist test, PPAR Delta. Particulars: for Emax: read-out: PPAR Delta Maximum Activation Response %.

A further experiment addresses T3, PPAR Gamma (Homo sapiens, UniProt P37231).
T3 sequence (P37231 1-505): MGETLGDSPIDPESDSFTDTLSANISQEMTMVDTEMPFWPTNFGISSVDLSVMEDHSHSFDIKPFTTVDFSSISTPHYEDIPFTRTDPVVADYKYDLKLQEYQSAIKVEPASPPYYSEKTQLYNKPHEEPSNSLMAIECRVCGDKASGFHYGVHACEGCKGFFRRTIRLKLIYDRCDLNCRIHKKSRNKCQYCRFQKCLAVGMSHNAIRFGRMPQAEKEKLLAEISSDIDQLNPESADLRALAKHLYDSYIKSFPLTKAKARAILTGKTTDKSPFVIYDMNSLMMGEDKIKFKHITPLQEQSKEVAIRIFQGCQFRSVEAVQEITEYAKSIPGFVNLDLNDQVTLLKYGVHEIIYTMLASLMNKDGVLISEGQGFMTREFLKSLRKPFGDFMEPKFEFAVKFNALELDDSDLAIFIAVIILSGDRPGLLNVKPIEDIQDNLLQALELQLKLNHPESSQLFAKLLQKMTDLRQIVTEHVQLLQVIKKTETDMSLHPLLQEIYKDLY
Kind of experiment: PathHunter NHR protein interaction / nuclear translocation agonist test, PPAR Gamma. As to conditions: for Emax: read-out: PPAR Gamma Maximum Activation Response %.

Where [1] appears, read: agonist mode, read-out: PPAR Alpha EC50.
Setting [2] is: agonist mode, read-out: PPAR Delta EC50.
[3] abbreviates: relative to known PPARδ agonist L-165,041 = 100%.
Where [4] appears, read: agonist mode, read-out: PPAR Gamma EC50.
Setting [5] is: relative to known PPARγ agonist Troglitazone = 100%.

Like-named read-outs stand apart in the source and are kept apart here. Bounds are passed on as bounds.

Turning to `Cc1cc(CCC2CN(C(=O)Oc3ccccc3)CC2C(=O)c2ccc(Cl)s2)cc(C)c1OC(C)(C)C(=O)O` (single isomer, unassigned) [Compound 47], the EC50 at PPAR Alpha (setting [1]) is less than 100 nM; on PPAR Delta (setting [2]), less than 100 nM; at PPAR Gamma (setting [4]), 150 to 200 nM. The Emax at PPAR Alpha, on PPAR Delta (setting [3]) and on PPAR Gamma (setting [5]) was 80 to 100% throughout.
As for `COC(=O)N1C[C@@H](C(=O)c2ccc(SC)cc2)[C@H](c2cc(C)c(OC(C)(C)C(=O)O)c(C)c2)C1` (single isomer, unassigned) [Compound 5], the “PPAR Alpha Maximum Activation Response %” value at PPAR Alpha is recorded as “I (key: 100% ≥ I ≥ 80%; 80% ≥ II ≥ 50%; III < 50%)”. The EC50 at PPAR Alpha (setting [1]) is greater than 250 nM; at PPAR Delta (setting [2]), 100 to 150 nM; on PPAR Gamma (setting [4]), greater than 250 nM. The results for the Emax at PPAR Delta and at PPAR Gamma were 50 to 80% and less than 50%, respectively.
For `CSc1ccc(C(=O)C2CN(C(=O)Oc3ccccc3)CC2CCc2ccc(OC(C)(C)C(=O)O)c(C)c2)cc1` (single isomer, unassigned) [Compound 81], the EC50 on PPAR Alpha (setting [1]) was less than 100 nM; on PPAR Delta (setting [2]), 100 to 150 nM; on PPAR Gamma (setting [4]), 200 to 250 nM. Further, the Emax at PPAR Alpha, at PPAR Delta (setting [3]) and at PPAR Gamma (setting [5]) was 80 to 100% in each case.
In the case of `Cc1cc(CC2CN(C(=O)Oc3ccccc3)CC2C(=O)c2ccc(F)cc2)cc(C)c1OC(C)(C)C(=O)O` (single isomer, unassigned) [Compound 69], the EC50 at PPAR Alpha (setting [1]) is less than 100 nM; on PPAR Delta (setting [2]), less than 100 nM; on PPAR Gamma (setting [4]) it was 150 to 200 nM. The Emax at PPAR Alpha, on PPAR Delta (setting [3]) and at PPAR Gamma (setting [5]) was 80 to 100% in each case.
For `CSc1ccc(C(=O)[C@H]2CN(C(=O)Oc3ccc(C)nc3)C[C@@H]2Cc2cc(C)c(OC(C)(C)C(=O)O)c(C)c2)cc1` (racemic) [Compound 53], the EC50 was 100 to 150 nM on PPAR Alpha (PPAR Alpha EC50 nM), 100 to 150 nM at PPAR Delta (PPAR Delta EC50 nM) and greater than 250 nM on PPAR Gamma (PPAR Gamma EC50 nM). In addition, the Emax was in the range of 80 to 100% at PPAR Alpha, 50 to 80% on PPAR Delta and 80 to 100% at PPAR Gamma.
With `Cc1cc(CCC2CN(C(=O)Oc3ccccc3)CC2C(=O)c2ccc(Cl)cc2)cc(C)c1OC(C)(C)C(=O)O` (single isomer, unassigned) [Compound 65], the EC50 at PPAR Alpha (setting [1]) is less than 100 nM; on PPAR Delta (setting [2]) it was less than 100 nM; at PPAR Gamma (setting [4]), 200 to 250 nM. Besides, the Emax at PPAR Delta lay in the range of 80 to 100%.
For `CSc1ccc(C(=O)/C=C/c2cc(C)c(OC(C)(C)C(=O)O)c(C)c2)cc1` [GFT-505, Elafibranor, reference compound], the EC50 at PPAR Alpha (setting [1]) and at PPAR Gamma (setting [4]) was greater than 250 nM each time. Besides, the Emax is 80 to 100% on PPAR Alpha, 50 to 80% at PPAR Delta and 50 to 80% on PPAR Gamma.
On to `Cc1cc(CC2CN(C(=O)Oc3ccccc3)CC2C(=O)c2ccc(Cl)cc2)cc(C)c1OC(C)(C)C(=O)O` (single isomer, unassigned) [Compound 70], for which the EC50 on PPAR Alpha (setting [1]) was less than 100 nM; at PPAR Delta (setting [2]), less than 100 nM; on PPAR Gamma (setting [4]) it was 150 to 200 nM. In addition, the Emax at PPAR Alpha, on PPAR Delta (setting [3]) and on PPAR Gamma (setting [5]) was 80 to 100% in each case.
Regarding `CSc1ccc(C(=O)[C@H]2CN(C(=O)Cc3ccc(Cl)cc3)C[C@@H]2c2cc(C)c(OC(C)(C)C(=O)O)c(C)c2)cc1` (racemic) [Compound 36], the figures for the EC50 at PPAR Alpha (setting [1]) and at PPAR Delta (setting [2]) were less than 100 nM and greater than 250 nM, respectively. For the same compound, the figures for the Emax at PPAR Alpha and at PPAR Delta (setting [3]) were 80 to 100% and 50 to 80%, respectively.
The like results for `CSc1ccc(C(=O)C2CN(C(=O)OC3CCCC3)CC2CCc2cc(C)c(OC(C)(C)C(=O)O)c(C)c2)cc1` (single isomer, unassigned) [Compound 74] were, in that order, less than 100 nM, 100 to 150 nM, 80 to 100% and 80 to 100%.
With `CSc1ccc(C(=O)C2CN(C(=O)Oc3ccc(Cl)cc3)CC2c2cccc(OC(C)(C)C(=O)O)c2)cc1` (single isomer, unassigned) [Compound 33], the EC50 on PPAR Alpha (setting [1]) is 200 to 250 nM; on PPAR Delta (setting [2]), greater than 250 nM. Further, the Emax was in the range of 80 to 100% at PPAR Alpha and 50 to 80% at PPAR Delta.
The like results for `CSc1ccc(C(=O)C2CN(C(=O)Oc3ccc(Cl)cc3)CC2Cc2cc(C)c(OC(C)(C)C(=O)O)c(C)c2)cc1` (single isomer, unassigned) [Compound 27] were, in that order, less than 100 nM, less than 100 nM, 80 to 100% and 50 to 80%.
Turning to `CSc1ccc(C(=O)[C@@H]2CN(C(=O)Oc3ccc(Cl)c(Cl)c3)C[C@H]2c2cc(C)c(OC(C)(C)C(=O)O)c(C)c2)cc1` (single isomer, unassigned) [Compound 43], the EC50 at PPAR Alpha (setting [1]) and at PPAR Delta (setting [2]) was less than 100 nM in each case. The Emax on PPAR Alpha and at PPAR Delta (setting [3]) was 80 to 100% in each case.
For `CSc1ccc(C(=O)[C@@H]2CN(C(=O)Oc3ccc(Cl)cc3F)C[C@H]2c2cc(C)c(OC(C)(C)C(=O)O)c(C)c2)cc1` (single isomer, unassigned) [Compound 42], the EC50 on PPAR Alpha (setting [1]) and at PPAR Delta (setting [2]) was less than 100 nM each time. Moreover, the Emax at PPAR Alpha and at PPAR Delta (setting [3]) was 80 to 100% in each case.
`CSc1ccc(C(=O)C2CN(C(=O)Oc3ccc(F)cc3)CC2Cc2cc(C)c(OC(C)(C)C(=O)O)c(C)c2)cc1` (single isomer, unassigned) [Compound 28]: the EC50 on PPAR Alpha (setting [1]) and on PPAR Delta (setting [2]) was less than 100 nM each time. Moreover, the Emax at PPAR Alpha lay in the range of 80 to 100%; at PPAR Delta, 50 to 80%.
Consider `CSc1ccc(C(=O)C2CN(C(=O)Oc3ccc(C)cc3)CC2c2cc(C)c(OC(C)(C)C(=O)O)c(C)c2)cc1` (single isomer, unassigned) [Compound 39], for which the results for the EC50 at PPAR Alpha (setting [1]) and on PPAR Delta (setting [2]) were less than 100 nM and 100 to 150 nM, respectively. Also, the Emax on PPAR Alpha and at PPAR Delta was 80 to 100% each time.
For the compound `CSc1ccc(C(=O)C2CN(C(=O)Oc3ccccc3Cl)C[C@@H]2c2cc(C)c(OC(C)(C)C(=O)O)c(C)c2)cc1` (mixture of isomers) [Compound 12], the EC50 at PPAR Alpha (setting [1]) was 150 to 200 nM; on PPAR Delta (setting [2]), greater than 250 nM. Besides, the Emax at PPAR Alpha is 80 to 100%; on PPAR Delta, 50 to 80%.
With `CSc1ccc(C(=O)C2CN(C(C)=O)CC2c2cc(C)c(OC(C)(C)C(=O)O)c(C)c2)cc1` (single isomer, unassigned) [Compound 21], the EC50 at PPAR Alpha (setting [1]) and on PPAR Delta (setting [2]) was greater than 250 nM each time. Moreover, the Emax on PPAR Alpha lay in the range of 80 to 100%; at PPAR Delta, 50 to 80%.
On to `CSc1ccc(C(=O)[C@H]2CN(C(=O)Nc3ccc(Cl)cc3)C[C@@H]2c2cc(C)c(OC(C)(C)C(=O)O)c(C)c2)cc1` (racemic) [Compound 37], for which the EC50 at PPAR Alpha (setting [1]) was less than 100 nM; on PPAR Delta (setting [2]), 200 to 250 nM. The Emax on PPAR Alpha lay within 80 to 100%; on PPAR Delta, 50 to 80%.
For `CSc1ccc(C(=O)[C@@H]2CN(C(=O)Oc3ccc(Cl)cc3Cl)C[C@H]2c2cc(C)c(OC(C)(C)C(=O)O)c(C)c2)cc1` (single isomer, unassigned) [Compound 41], the EC50 at PPAR Alpha (setting [1]) and at PPAR Delta (setting [2]) was less than 100 nM throughout. The Emax on PPAR Alpha and at PPAR Delta (setting [3]) was 80 to 100% throughout.
With `CSc1ccc(C(=O)C2CN(S(N)(=O)=O)CC2c2cc(C)c(OC(C)(C)C(=O)O)c(C)c2)cc1` (single isomer, unassigned) [Compound 19], the EC50 on PPAR Alpha (setting [1]) is 200 to 250 nM; on PPAR Delta (setting [2]) it was greater than 250 nM. Moreover, the values for the Emax at PPAR Alpha and on PPAR Delta (setting [3]) were 80 to 100% and 50 to 80%, respectively.
Regarding `CSc1ccc(C(=O)C2CN(C(=O)Oc3cccc(Cl)c3)CC2c2cc(C)c(OC(C)(C)C(=O)O)c(C)c2)cc1` (single isomer, unassigned) [Compound 38], the EC50 at PPAR Alpha (setting [1]) is less than 100 nM; at PPAR Delta (setting [2]), 150 to 200 nM. For the same compound, the Emax on PPAR Alpha was 80 to 100%.
